Measured values as given in US5693668A, “Acetylcholinesterase inhibitors” (priority 1989, dated 1997).
Where two headings read alike, the source gives them in different places.

Columns and labels:
[1] = assay type: in vitro ADME, hairless mouse (Outbred Nude mouse); conditions: for skin permeation rate: 50% w/w drug loading
Protocol: An in vitro excised hairless mouse skin/modified Franz Diffusion Cell model was used to evaluate skin permeability of neat MDL 73,745, the title compound of Example 1, and permeation profile of MDL 73,745 from various prototype transdermal delivery systems. Prototype transdermal delivery systems containing MDL 73,745 were prepared in various acrylic, silastic, ethylene vinyl acetate copolymer, and rubber based pressure sensitive adhesives and evaluated in the in vitro skin permeation cell model.
In vitro skin permeation model: For this study an in vitro finite-dose glass diffusion cell (modified Franz Diffusion Cell)/freshly excised hairless mouse skin model was used. The diffusion consists of two parts: (i) a receptor compartment which is an upright reservoir jacketed by a glass chamber on the outside. Experiments were conducted at 37° C. by circulating thermostatically controlled water at 37° C. in this jacket and (ii) donor cap, which is clamped together with the receptor compartment with a metal clamp. A piece of skin/(transdermal formulation) is sandwiched between the donor and the receptor compartments and clamped together. Sampling from the receptor compartment is taken at predetermined time intervals through the sampling port.
Hairless mouse: Outbred Nude mouse {CRL NU/NU (CD1) BR, 6-8 weeks old, male} from Charles River, Mass.
Excised skin: Immediately following sacrifice by CO2 gas, a portion (3.5×3.5 cm) of the full-thickness abdominal skin was carefully excised from the hairless mouse. The dermal side of the skin was carefully cleaned of any adhering subcutaneous tissue and/or blood vessels. Extreme care was taken not to scratch or damage the stratum corneum. Before mounting onto the diffusion cell, each piece of skin was carefully inspected to insure that the skin was not damaged.
(§1) Dermal elution media: A 5% solution of polyethylene glycol 20 Oleyl ether (Trycol®, Emery) in 0.9% sodium chloride was used as the receptor medium for the modified Franz Diffusion Cells. […] Temperature of the dermal elution media was maintained at 37° C. using a thermostated constant temperature circulating water bath.
Skin permeation profile from neat MDL 73,745 and from Prototype formulations: Full-thickness skin, prepared freshly as outlined above, was mounted in a modified Franz Diffusion Cell with the stratum corneum side facing upward. To study the permeation profile of neat MDL 73,745, 50 μl of MDL 73,745 was uniformly applied onto the stratum corneum. The donor cap was placed over the skin and the whole assembly was then securely clamped together. The donor cap was covered with a piece of aluminum foil to reduce the volatilization of MDL 73,745. To evaluate the skin permeation profile of MDL 73,745 from a prototype transdermal formulation, a unit of prototype transdermal system (about 4.9 cm^2 circular) containing MDL 73,745 was placed onto the skin with the drug releasing side in intimate contact with the stratum corneum (slight pressure was applied to insure good contact). The donor cap was placed over the skin and the whole assembly was then securely clamped together.
Dermal elution medium (5% w/w Trycol® in normal saline) was then introduced into the receptor compartment through the sampling port. At predetermined time intervals, the entire volume of the receptor solution was withdrawn and immediately replaced with the same volume of fresh, drug free dermal elution medium (5% w/w Trycol® in normal saline), maintained at 37° C. The concentration of MDL 73,745 was determined by a sensitive HPLC method described under Analytical Method section below.
Analytical Method: An automated high performance liquid chromatograph equipped with a gradient pump (Waters Model 600E), autoinjector/sampler (Waters, Model 715 WISP), and a variable wavelength UV detector (Waters, Model 490) was used. The autoinjector/sampler was maintained at 2° C. to reduce possible evaporation/degradation of MDL 73,745 in the sample. […]

plasma cholineesterase = test: Inhibition of plasma cholinesterase activity during patch application in dogs; assay type: in vivo, Beagle dog; conditions: `lead` prototype patch, throughout patch application (96 hours)
Protocol: (§2) Transdermal Bioavailability of MDL 73,745 from a prototype transdermal delivery system in Beagle Dogs
(§3) A `lead` prototype formulation was then evaluted in an in vivo dog model. […] The rate of in vivo transdermal delivery in the dog was calculated to be 7.7 μg/cm^2 /hr.

[2] = Aqueous solubility of MDL 73,745 in Trycol medium; assay type: physicochemical; conditions: in presence of Trycol (polyethylene glycol 20 Oleyl ether), 5% in 0.9% sodium chloride
Protocol: as §1

[3] = In vivo transdermal delivery of MDL 73,745 from prototype patch in Beagle dogs; set-up: species or system Beagle dog
Protocol: as §2, §3
Three male Beagle dogs were studied. Animals were fasted 12 h before drug administration but had free access to drinking water. The following single doses of [^14 C]-MDL 73,745 were administered: intravenous (iv): 1 and 2 mg/kg; oral (po): 10 mg/kg; subcutaneous (sc): 10 mg/kg. There was a two week wash-out period between each administration. Drug was administered as a suspension in 0.5% methyl cellulose.
From the equation: S.ko=Cl.Css
S=area (cm^2) of the patch
Css =steady-state concentration (ng/ml)
ko-rate of release from the delivery system per unit surface area can be calculated: […]

Compound: C[Si](C)(C)c1cccc(C(=O)C(F)(F)F)c1 [MDL 73,745, 2,2,2-Trifluoro-1-(3-trimethylsilylphenyl) ethanone]
- rate of transdermal delivery ([1]; 3M acrylic adhesive #9871, 50% w/w drug loading): 13.01 μg/cm^2 /hr
- rate of transdermal delivery ([1]; 3M acrylic adhesive #9871, 60% w/w drug loading): 21.04 μg/cm^2 /hr
- transdermal delivery profile ([1]; 3M acrylic adhesive #9871 prototypes): constant, zero-order profile
- skin permeation rate ([1]; prototype in Gelva 737): 12.95 μg/cm^2 /hr
- skin permeation rate ([1]; prototype in Gelva 788): 8.63 μg/cm^2 /hr
- skin permeation profile ([1]; DuroTak 72-9718 rubber based PSA prototypes): constant, zero-order profile
- rate of transdermal delivery ([1]; DuroTak 72-9718 rubber based PSA, 20% w/w drug loading): 12.92 μg/cm^2 /hr
- rate of transdermal delivery ([1]; Eva-Tak 72-9660 prototype containing 50% drug): 33.86 μg/cm^2 /hr
- rate of transdermal delivery ([1]; Eva-Tak 72-9660 prototype containing 60% drug): 20.59 μg/cm^2 /hr
- transdermal delivery profile ([1]; Eva-Tak 72-9660 prototypes, throughout duration of patch application): controlled, zero-order fashion
- rate of transdermal delivery ([1]; Nacor 38-4515 prototype containing 50% w/w drug): 19.18 μg/cm^2 /hr
- transport profile through skin ([1]; neat MDL 73,745): controlled zero order fashion
- rate of transdermal delivery ([1]; neat MDL 73,745, 50 μl on stratum corneum): 208.21 μg/cm^2 /hr
- period of controlled, zero-order transdermal delivery ([1]; prototypes in various acrylic PSA): at least 24 hours
- inhibition of plasma cholineesterase activity (plasma cholineesterase): inhibition of plasma cholineesterase activity was achieved
- aqueous solubility [2]: increases the aqueous solubility
- rate of in vivo transdermal delivery ([3]; `lead` prototype patch, dog, calculated): 7.7 μg/cm^2 /hr
- plasma level ([3]; `lead` prototype patch, throughout patch application (96 hours)): constant, steady state plasma level
- ko, rate of release from the delivery system per unit surface area ([3]; patch 70% w/w MDL 73,745 in DuroTak 80-1074, 5 mg/cm^2, same for both doses, from S.ko=Cl.Css): 7.7 μg/hr/cm^2
